These results are taken from US20030006516A1, “Optical data storage medium containing a heterocyclic azo dye as the light-absorbing compound in the information layer” (priority 2001, published 2003).

Type in all cases: physicochemical
Data set [1] can be described thus: Film formation (morphology of the dye layer). The text has this: In addition to the abovementioned optical properties, the recordable information layer consisting of light-absorbing organic substances must have a morphology which is as amorphous as possible, in order to keep the noise signal during recording or reading as small as possible. For this purpose it is particularly preferable, when applying the substances by spin-coating from a solution or by vapour deposition and/or sublimation, to prevent crystallization of the light-absorbing substances during the subsequent top-coating with metallic or dielectric layers in vacuo.

Data set [2] can be described thus: Absorption spectrum measured in solution (λmax, ε, slope width, solvatochromism). As for the experimental part: For a recordable optical data storage medium according to the invention which is recorded on and read using light from a blue laser, such heterocyclic azo dyes are preferred whose absorption maximum λmax2 is in the range from 420 to 550 nm, […] half the extinction value at λmax2, and the wavelength λ1/10, at which the extinction on the short-wavelength slope of the absorption maximum of the wavelength λmax2 is a tenth of the extinction value at λmax2, are preferably in each case no further than 80 nm away from each other.
For a recordable optical data storage medium according to the invention which is recorded on and read using light from a red laser, such heterocyclic azo dyes are preferred whose absorption maximum λmax2 is in the range from 500 to 650 nm, wherein the wavelength λ1/2 at which the extinction on the long-wavelength slope of the absorption maximum of the wavelength λmax2 is half the extinction value at λmax2, and the wavelength λ1/10, at which the extinction on the long-wavelength slope of the absorption maximum of the wavelength λmax2 is a tenth of the extinction value at λmax2, are preferably in each case no further than 60 nm away from each other.
At the absorption maximum λmax2 the heterocyclic azo dyes preferably have a molar extinction coefficient E of >25000 l/mol cm, preferably >35000 l/mol cm, particularly preferably >40000 l/mol cm and very particularly preferably >50000 l/mol cm.
The absorption spectra are, for example, measured in solution.
Suitable heterocyclic azo dyes having the required spectral properties are in particular those in which the change in the dipole moment Δμ=|μg−μag|, i.e. the positive difference between the dipole moments in the ground state and the first excited state is as small as possible, i.e. preferably <5 D, and particularly preferably <2 D. One method of determining such a change in the dipole moment Δμ is described for example in F. Würthner et al., Angew. Chem. 1997, 109, 2933 and in the literature cited therein. Low solvatochromism (dioxan/DMF) is also a suitable criterion for selection. Preferred heterocyclic azo dyes are those whose solvatochromism Δλ=|λDMFλdioxan|, i.e. the positive difference between the absorption wavelengths in the solvents dimethyl formamide and dioxan is <20 nm, particularly preferably <10 nm, and very particularly preferably <5 nm.

The nature of data set [3]: Solubility in TFP (2,2,3,3-tetrafluoropropanol). The text has this:
Solubility: >2% in TFP (2,2,3,3-tetrafluoropropanol)

As to `CC(C)N(c1nnc(/N=N/c2cnc(N(C)C)s2)s1)C(C)C` [Example 1], the film result in data set [1] is “a glassy film”. Further, in data set [2] (Example 1, long-wave slope), the “λ1/2-λ1/10 (long-wave slope)” value is 22 nm. The compound also came in with a ε in data set [2] (Example 1, molar extinction coefficient at λmax) of 44140 L/mol/cm. For the same compound, the λmax in data set [2] (Example 1, solvent not given) is recorded as 496 nm. For the same compound, in data set [2] (solvatochromism DMF vs dioxan), the “Δλ=|λDMF−λdioxan|” value is 2 nm. Moreover, the Solubility in data set [3] is greater than 2%.
